Experimental data: US20240287042A1, “NOVEL COMPOUND HAVING INHIBITORY ACTIVITY AGAINST PENDRIN, AND PHARMACEUTICAL USES THEREOF” (UIF (University Industry Foundation), Yonsei University, priority 2021, published 2024)

Assays:
[1] = test system: LPS-induced lung injury mouse model; test: LPS-induced lung injury mouse model with anion supply; type: in vivo, mice; conditions: 5 μg/kg i.v. once 6 h after LPS
Experimental: Specifically, lipid polysaccharide (LPS, 200 μg/head) dissolved in 50 μL PBS was injected intranasally, and 6 hours after LPS inhalation, YPI-A4948 was intravenously administered once at 5 μg/kg, and at the same time, OH^−, HCO3^−, and SCN^− anions were administered intranasally, respectively. The mice were euthanized 24 hours after LPS inhalation to remove the lungs. Then, lung tissue H&E staining was performed to observe the degree of lung injury, and bronchoalveolar lavage fluid (BALF) was extracted in the same manner as in Example 12, and cytopathology staining using BALF total cell count, BALF protein concentration level, and Diff-Quik Stain was performed. Data provided are mean±SEM (n=3-5 per group), scale bar is 50 μm for H&E staining and cytopathology staining imaged at 400×.

[2] = test system: SLC26A4 (pendrin); test: Pendrin protein and mRNA expression after LPS in hAEC; type: cell-based, human
[3] = test system: LPS-induced lung injury model; test: LPS-induced lung injury model in mice, i.v. treatment after LPS; type: in vivo, C57BL/6N mice
Experimental: Lipid polysaccharide (LPS, 200 μg/head) dissolved in 50 μL PBS was injected intranasally into C57BL/6N mice. YPI-A4948 (1, 10 μg/kg) was administered intravenously twice in total at 6 hours and 12 hours after LPS injection, and the mice were euthanized at 24 hours after LPS inhalation to remove the lungs. Immune cell recruitment was confirmed through bronchoalveolar lavage fluid (BALF) obtained by injecting 1 mL of PBS into the removed lung and then re-extracting the PBS. Lung injury parameters were measured by ELISA after lysing lung tissue. The expression level of pendrin protein was confirmed by Western blot, and this was digitalized and measured using a shade measuring instrument (mean±SEM, n=3 per group). Pendrin mRNA levels were determined by real-time quantitative PCR in extracted lung tissue (mean±SEM, n=3 per group). IL-10, MIP-2, IL-6, and TNF-α levels were measured by ELISA in lung tissue lysates (mean±SEM n=4-7 mice per group).

[4] = target: T1, human wild-type pendrin (Homo sapiens, UniProt O43511); test: Pendrin Cl−/SCN− exchange activity in human alveolar epithelial cells (hAEC) overexpressing pendrin; type: cell-based; conditions: 0.3 μM to 30 μM, read-out: IC50 of human wild-type pendrin-mediated Cl−/SCN− exchange activity
T1 construct: expressed in transfected cells; host or cells: human alveolar epithelial cells (hAEC) overexpressing pendrin
T1 sequence (O43511 1-780): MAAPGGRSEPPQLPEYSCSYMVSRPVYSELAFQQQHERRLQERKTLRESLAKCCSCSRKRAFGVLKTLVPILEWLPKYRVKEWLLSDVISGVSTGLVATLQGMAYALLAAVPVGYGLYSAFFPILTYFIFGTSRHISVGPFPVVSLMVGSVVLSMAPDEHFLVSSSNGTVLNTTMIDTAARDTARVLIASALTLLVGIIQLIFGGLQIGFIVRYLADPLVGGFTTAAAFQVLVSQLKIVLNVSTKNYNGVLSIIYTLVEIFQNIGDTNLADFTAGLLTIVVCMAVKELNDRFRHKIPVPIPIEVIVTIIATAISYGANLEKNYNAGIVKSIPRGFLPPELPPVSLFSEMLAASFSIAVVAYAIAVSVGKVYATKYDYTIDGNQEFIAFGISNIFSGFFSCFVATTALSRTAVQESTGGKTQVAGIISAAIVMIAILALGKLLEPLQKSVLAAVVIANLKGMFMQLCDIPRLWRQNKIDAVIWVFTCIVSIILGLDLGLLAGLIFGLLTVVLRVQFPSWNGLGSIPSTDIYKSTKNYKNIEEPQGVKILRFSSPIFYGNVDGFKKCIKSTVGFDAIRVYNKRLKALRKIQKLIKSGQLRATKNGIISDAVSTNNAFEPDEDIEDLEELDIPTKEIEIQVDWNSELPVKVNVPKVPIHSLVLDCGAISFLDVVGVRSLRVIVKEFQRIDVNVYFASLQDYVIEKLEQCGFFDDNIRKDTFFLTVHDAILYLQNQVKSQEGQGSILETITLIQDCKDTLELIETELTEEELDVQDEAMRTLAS
Experimental: In FIG. 13a, human alveolar epithelial cells (hAEC) overexpressing pendrin were treated with YPI-A4948 as a novel pendrin inhibitor from 0.3 μM to 30 μM, and the Cl^−/SCN^− exchange ability of SLC26A4 was measured by the change in YFP fluorescence when compared to before YPI-A4948 treatment. The IC50 of human wild-type pendrin-mediated Cl^−/SCN^− exchange activity was confirmed to be 0.9 μM.

[5] = i.v. 1, 10 μg/kg at 6 and 12 h after LPS, vs LPS only

IC50 [4]: 900 nM
Compound: Cc1ccc2[nH]c(C(=O)O)c(CC(=O)N3CCN(c4c(C)cccc4Cl)CC3)c2c1 [YPI-A4948, 3-(2-(4-(2-Chloro-6-methylphenyl)piperazin-1-yl)-2-oxoethyl)-5-methyl-1H-indole-2-carboxylic acid]
Lung injury [1]: reduced
Lung injury improvement effect when OH−, HCO3−, SCN− anions are supplied intranasally [1]: weakened only by SCN^−
Protein expression level of SLC26A4 (pendrin) ([2]; LPS treatment after YPI-A4948 pretreatment in vitro): inhibited by YPI-A4948 in a dose-dependent manner
mRNA expression level of pendrin ([2]; increased by LPS in vitro): not statistically significantly reduced
Lung inflammatory cytokine IL-6 ([3]; ELISA in lung tissue lysates): statistically significantly reduced
Lung inflammatory cytokine IL-10 ([3]; ELISA in lung tissue lysates): statistically significantly reduced
Lung inflammatory cytokine MIP-2 ([3]; ELISA in lung tissue lysates): statistically significantly reduced
Lung inflammatory cytokine TNF-α ([3]; ELISA in lung tissue lysates): statistically significantly reduced
BALF protein concentration [3, 5]: significantly reduced
BALF total cell counts [3, 5]: significantly reduced
Level of pendrin mRNA in lung [3, 5]: significantly reduced
Level of pendrin protein in lung [3, 5]: significantly reduced
